Results taken from ChEMBL document CHEMBL1143859, “Identification and synthesis of a unique thiocarbazate cathepsin L inhibitor” (Bioorg Med Chem Lett, 2008).

Target: Procathepsin L (Homo sapiens, UniProt P07711)
Experiment: Inhibition of cathepsin L

Procathepsin L, sequence (P07711 whole entry): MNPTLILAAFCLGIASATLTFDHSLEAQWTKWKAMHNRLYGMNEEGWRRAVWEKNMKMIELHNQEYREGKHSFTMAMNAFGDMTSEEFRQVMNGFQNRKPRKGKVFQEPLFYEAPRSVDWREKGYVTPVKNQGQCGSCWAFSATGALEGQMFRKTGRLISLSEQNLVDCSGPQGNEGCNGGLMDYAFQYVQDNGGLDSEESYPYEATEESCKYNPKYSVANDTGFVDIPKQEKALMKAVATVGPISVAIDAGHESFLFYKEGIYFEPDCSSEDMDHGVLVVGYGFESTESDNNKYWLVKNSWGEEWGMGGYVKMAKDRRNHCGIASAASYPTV

CCc1ccccc1NC(=O)CSC(=O)NNC(=O)[C@@H](N)Cc1c[nH]c2ccccc12
IC50: 133 nM

CN(C)C(=O)CSc1nnc([C@@H](N)Cc2c[nH]c3ccccc23)o1
IC50: 170 nM

CCN(CC)C(=O)CSc1nnc([C@@H](N)Cc2c[nH]c3ccccc23)o1
IC50: 510 nM

Cc1cccc(NC(=O)CSc2nnc(C(N)Cc3c[nH]c4ccccc34)o2)c1C (single isomer, unassigned)
IC50: 300 nM

Cc1ccc(NC(=O)CSc2nnc(C(N)Cc3c[nH]c4ccccc34)o2)c(C)c1 (single isomer, unassigned)
IC50: 160 nM

CCc1ccccc1NC(=O)CSc1nnc(C(N)Cc2c[nH]c3ccccc23)o1 (single isomer, unassigned)
IC50: 130 nM
